Where “and” joins values, the source holds several entries; their conditions need not be identical. Identical values can stand only once. Toxic doses and inconclusive results are not listed.
Tested on: CD2F1 mice, L1210 leukemia ip, survival T/C
Test: NCI In Vivo Anticancer Drug Screen. Data for tumor model L1210 Leukemia (intraperitoneal) in CD2F1 (CDF1) mice
Settings: higher = longer survival
Summary of the method: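 Vehicle-treated tumor-bearing mice served as controls (C) for compound-treated mice (T). Reported figure is T divided by C.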

[1] = endpoint: mean survival time, dose: 100.0 mg/kg/injection, schedule: Q01DX009 (ip), vehicle: saline
[2] = endpoint: mean survival time, dose: 200.0 mg/kg/injection, schedule: Q01DX009 (ip), vehicle: saline
[3] = endpoint: mean survival time, dose: 100.0 mg/kg/injection, schedule: Q04DX002 (ip), vehicle: saline with Tween-80
[4] = endpoint: mean survival time, dose: 200.0 mg/kg/injection, schedule: Q04DX002 (ip), vehicle: saline with Tween-80
[5] = endpoint: mean survival time, dose: 400.0 mg/kg/injection, schedule: Q04DX002 (ip), vehicle: saline with Tween-80
[6] = endpoint: mean survival time, dose: 100.0 mg/kg/injection, schedule: Q01DX001 (ip), vehicle: saline with Tween-80
[7] = endpoint: mean survival time, dose: 200.0 mg/kg/injection, schedule: Q01DX001 (ip), vehicle: saline with Tween-80
[8] = endpoint: mean survival time, dose: 100.0 mg/kg/injection, schedule: Q04DX003 (ip), vehicle: Klucel (hydroxypropylcellulose) (HPC)
[9] = endpoint: mean survival time, dose: 200.0 mg/kg/injection, schedule: Q04DX003 (ip), vehicle: Klucel (hydroxypropylcellulose) (HPC)
[10] = endpoint: mean survival time, dose: 100.0 mg/kg/injection, schedule: Q01DX009 (ip), vehicle: saline with Tween-80
[11] = endpoint: mean survival time, dose: 200.0 mg/kg/injection, schedule: Q01DX009 (ip), vehicle: saline with Tween-80
[12] = endpoint: mean survival time, dose: 50.0 mg/kg/injection, schedule: Q04DX002 (ip), vehicle: saline with Tween-80

Question: What does the source list for `O=C(O)C1(C(=O)O)CC2CC=CCC2C1` (stereo unspecified)?
Answer: T/C [1]: 98 % of control; T/C [2]: 100 % of control; T/C (endpoint: mean survival time, dose: 400.0 mg/kg/injection, schedule: Q01DX009 (ip), vehicle: saline): 87 % of control

Question: With `COc1cccc2c1C(=O)c1c(O)c3c(c(O)c1C2=O)C[C@](O)(C(=O)CO)CC3OC1CC(N)C(OC2CCCCO2)C(C)O1` (stereo partly specified) as the compound, how does the T/C (endpoint: median survival time, dose: 3.0 mg/kg/injection, schedule: Q01DX009 (ip), vehicle: water) read?
Answer: Its T/C is 123 % of control and 227 % of control.

Question: And the T/C (endpoint: median survival time, dose: 6.0 mg/kg/injection, schedule: Q01DX009 (ip), vehicle: water)?
Answer: Its T/C is 91 % of control.

Question: Which results are given for `O=C(C1CC1)N1CCC(O)(c2ccccc2)CC1`?
Answer: T/C [3]: 97 % of control; T/C [4]: 93 % of control; T/C [5]: 93 % of control

Question: `CCOC(=O)c1c2cccccc-2c(C#N)c1O` was tested. Which T/C [6] did it give?
Answer: The T/C was 93 % of control.

Question: And the T/C [7]?
Answer: Its T/C is 99 % of control.

Question: What about the T/C (endpoint: mean survival time, dose: 400.0 mg/kg/injection, schedule: Q01DX001 (ip), vehicle: saline with Tween-80) of the same compound?
Answer: The T/C was 96 % of control.

Question: Which results are given for `C=CCC(C)C(C)C` (stereo unspecified)?
Answer: T/C (endpoint: mean survival time, dose: 50.0 mg/kg/injection, schedule: Q01DX009 (ip), vehicle: saline): 96 % of control; T/C [1]: 100 % of control; T/C [2]: 100 % of control

Question: For `CC12CCC(=O)C=C1CCC1C2CCC2(C)C(C(=O)Cn3c(=O)[nH]cc(F)c3=O)CCC12` (stereo unspecified), which T/C (endpoint: mean survival time, dose: 12.5 mg/kg/injection, schedule: Q04DX003 (ip), vehicle: Klucel (hydroxypropylcellulose) (HPC)) is on record?
Answer: The T/C was 94 % of control.

Question: What about the T/C (endpoint: mean survival time, dose: 25.0 mg/kg/injection, schedule: Q04DX003 (ip), vehicle: Klucel (hydroxypropylcellulose) (HPC)) of the same compound?
Answer: The T/C was 94 % of control.

Question: And the T/C (endpoint: mean survival time, dose: 50.0 mg/kg/injection, schedule: Q04DX003 (ip), vehicle: Klucel (hydroxypropylcellulose) (HPC))?
Answer: Its T/C is 97 % of control.

Question: What about the T/C [8] of the same compound?
Answer: The T/C was 91 % of control.

Question: What about the T/C [9] of the same compound?
Answer: The T/C was 95 % of control.

Question: `O=C(CNC(=O)Nc1cccc(C(F)(F)F)c1)N/N=C/c1cccc([N+](=O)[O-])c1` was tested. Which T/C (endpoint: mean survival time, dose: 50.0 mg/kg/injection, schedule: Q01DX009 (ip), vehicle: saline with Tween-80) did it give?
Answer: The T/C was 96 % of control.

Question: And the T/C [10]?
Answer: Its T/C is 88 % of control.

Question: What about the T/C [11] of the same compound?
Answer: The T/C was 92 % of control.

Question: Which T/C [12] does the source give for `O=C(O)C1CC(n2cnc3c(=O)[nH]cnc32)CN1` (stereo unspecified) here?
Answer: The T/C was 96 % of control.

Question: What about the T/C [3] of the same compound?
Answer: Its T/C is 110 % of control.

Question: And the T/C [4]?
Answer: Its T/C is 93 % of control.

Question: What about the T/C [5] of the same compound?
Answer: The T/C was 93 % of control.

Question: What does the source list for `CC(C)(C)c1cc([N+](C)(C)C)cc(C(C)(C)C)n1`?
Answer: T/C (endpoint: mean survival time, dose: 12.5 mg/kg/injection, schedule: Q04DX002 (ip), vehicle: saline with Tween-80): 96 % of control; T/C (endpoint: mean survival time, dose: 25.0 mg/kg/injection, schedule: Q04DX002 (ip), vehicle: saline with Tween-80): 92 % of control; T/C [12]: 100 % of control

Question: How did the T/C [6] turn out when `CC(=O)OC1CC2(O)C3CCC4CC(O)CCC4(C)C3CCC2(C)C1C1=CC(=O)OC1` (stereo unspecified) was run?
Answer: Its T/C is 98 % of control.

Question: And the T/C [7]?
Answer: Its T/C is 101 % of control.

Question: Which results are given for `C[N+](C)(C)Cc1ccccc1/C(=N\O)c1ccccc1`?
Answer: T/C (endpoint: mean survival time, dose: 5.0 mg/kg/injection, schedule: Q01DX009 (ip), vehicle: saline): 109 % of control; T/C (endpoint: mean survival time, dose: 5.0 mg/kg/injection, schedule: Q04DX003 (ip), vehicle: saline): 116 % of control; T/C (endpoint: mean survival time, dose: 10.0 mg/kg/injection, schedule: Q01DX009 (ip), vehicle: saline): 100 % of control; T/C (endpoint: mean survival time, dose: 10.0 mg/kg/injection, schedule: Q04DX003 (ip), vehicle: saline): 98 % of control; T/C (endpoint: mean survival time, dose: 20.0 mg/kg/injection, schedule: Q01DX009 (ip), vehicle: saline): 91 % of control; T/C (endpoint: mean survival time, dose: 20.0 mg/kg/injection, schedule: Q04DX003 (ip), vehicle: saline): 89 % of control

Question: Which results are given for `CCCCCC(C(O)C#N)C(O)(C(F)(F)F)C(F)(F)F` (stereo unspecified)?
Answer: T/C [8]: 96 % of control; T/C [9]: 96 % of control; T/C (endpoint: mean survival time, dose: 400.0 mg/kg/injection, schedule: Q04DX003 (ip), vehicle: Klucel (hydroxypropylcellulose) (HPC)): 90 % of control

Question: Which T/C [10] does the source give for `COc1ccccc1OC` here?
Answer: Its T/C is 95 % of control.

Question: What about the T/C [11] of the same compound?
Answer: Its T/C is 92 % of control.

Question: What about the T/C (endpoint: mean survival time, dose: 400.0 mg/kg/injection, schedule: Q01DX009 (ip), vehicle: saline with Tween-80) of the same compound?
Answer: The T/C was 92 % of control.

Question: Which T/C (endpoint: mean survival time, dose: 100.0 mg/kg/injection, schedule: Q04DX002 (ip), vehicle: other) does the source give for `O=C(OCCNc1ccc([N+](=O)[O-])cc1[N+](=O)[O-])c1ccccc1` here?
Answer: The T/C was 101 % of control.

Question: And the T/C (endpoint: mean survival time, dose: 200.0 mg/kg/injection, schedule: Q04DX002 (ip), vehicle: other)?
Answer: The T/C was 108 % of control.

Question: And the T/C (endpoint: mean survival time, dose: 400.0 mg/kg/injection, schedule: Q04DX002 (ip), vehicle: other)?
Answer: The T/C was 96 % of control.

Source: PubChem BioAssay AID256 (DTP/NCI, 2004)
